The record followed here is publication PMC6755732, “Structural, Biochemical, and In Vivo Characterization of MtrR-Mediated Resistance to Innate Antimicrobials by the Human Pathogen Neisseria gonorrhoeae” (Journal of Bacteriology, 2019).

One experiment addresses T1, MtrR-mtrCDE promoter (Neisseria gonorrhoeae, UniProt P39897).
T1 construct: nearly all 210 residues of each protomer observed, with the exception of residues 1 through 7; hexahistidine tag (thrombin-cleavable) (cleaved yes); made in house
It is filed as biochemical. To be noted: for Fold increase in Kd: versus no bile salt. As to the method: Thus, to rule out any effect of alkaline pH on MtrR-DNA interactions, we buffered the CAPS used in the FP assay to pH 8.0 before testing its effect on DNA binding.
Fluorescence polarization-based DNA binding experiments were performed with a Panvera Beacon 2000 fluorescence polarization system (Invitrogen) utilizing 5′-fluorescein-labeled DNA. Polarization (P) of such 5′-labeled DNA increases as a function of protein binding, and equilibrium dissociation constants are determined by curve fitting the values of millipolarization (P × 10^−3) units against the protein concentration. To determine the effects of various ligands on MtrR-DNA binding, 1 nM 5′-fluoresceinated oligodeoxynucleotide duplexes containing the mtrC operator site in 1 ml binding buffer (20 mM Tris HCl [pH 8.0], 100 mM NaCl, and 2.5% glycerol) were titrated against increasing concentrations of purified MtrR in the presence or absence of the indicated concentrations of bile salt, and the resulting changes in polarization were measured. All the samples were excited at 490 nm, and their polarized emissions were measured at 530 nm. All the data were plotted using Kaleidagraph (Synergy Software) and Prism (GraphPad Software), and the resulting plots were fitted to the following equation: P = {(Pbound − Pfree)[protein]/(KD + [protein])} + Pfree, where P is the polarization measured at a given protein concentration, Pfree is the initial polarization of the free ligand, Pbound is the maximum polarization of specifically bound ligand, KD is the equilibrium dissociation constant, and [protein] is the protein concentration. Nonlinear least-squares analysis was used to determine Pbound, and Kd. The reported binding constants are the average values from at least three independent experimental measurements.

Another experiment addresses T2, WT MtrR (Neisseria gonorrhoeae, UniProt P39897).
T2 construct: A codon optimized gene of MtrR was synthesized by GenScript and cloned into the; hexahistidine tag with TEV protease site (N, cleaved yes); made in house
In words: ITC ligand competition, WT MtrR presaturated with one bile salt and titrated with the second. It is filed as binding. The following applies: WT MtrR (20 μM) preincubated with 20 μM taurodeoxycholate overnight at 4°C. As to the method: (A to D) Isothermal titration calorimetry thermograms and resulting binding isotherms for binding reactions between MtrR(R176E) and chenodeoxycholate (A) and taurodeoxycholate (B), as well as between MtrR(W136L) and chenodeoxycholate (C) and taurodeoxycholate (D). (E and F) Isothermal titration calorimetry thermograms and resulting binding isotherms for ligand competition assays. (E) WT MtrR (20 μM) was incubated with 20 μM taurodeoxycholate overnight at 4°C; chenodeoxycholate was titrated into MtrR-TDCA. (F) WT MtrR (20 μM) was incubated with 20 μM chenodeoxycholate overnight at 4°C; taurodeoxycholate was titrated into MtrR-CDCA.
This finding supports the idea that these ligands occupy different binding sites on MtrR and that the binding of taurodeoxycholate occludes, either directly or allosterically, the binding site of chenodeoxycholate. With our current data, we cannot determine the exact binding location of taurodeoxycholate. […]
Purified MtrR was dialyzed extensively against buffer containing 20 mM Tris [pH 8.0], 200 mM NaCl, 10% glycerol, and 1 mM TCEP overnight at 4°C. […] After subtraction of germane blank data, the titration data were analyzed using the program ORIGIN 5.0.

In experiment [1] the target is T3, MtrR(W136L)-mtrCDE operator DNA (Neisseria gonorrhoeae, UniProt P39897, W136L).
T3 construct: hexahistidine tag with TEV protease site (N, cleaved yes); made in house; host or cells: Rosetta Gami B(DE3) pLysS cells (Novagen)
As to the kind of experiment: Electrophoretic mobility shift assay, induction of MtrR(W136L). It is filed as biochemical. To be noted: EMSA. The text has this: (§1) We hypothesized that the bile salts chenodeoxycholate and taurodeoxycholate occupied the binding pocket in which the CAPS electron density was observed. In our crystal structure, residues R176′ and W136 appear to be potentially important for H bonding and π stacking, respectively, with the ligand (see Fig. S4). Therefore, we generated and purified the single-site mutant MtrR proteins, MtrR(R176A), MtrR(R176E), and MtrR(W136L), to determine the importance of these residues for ligand binding (see the supplemental material) ([40]). First, we determined the capabilities of these single mutants to bind DNA with our FP-based assay. All the mutants were capable of binding the mtrCDE target sequence, with dissociation constants in the nanomolar range and all within 5-fold of the wild-type protein (see Fig. S7A). […] At higher concentrations (5 to 10 mM), taurodeoxycholate induced all three mutants. […]
(§2) Complementary oligodeoxynucleotides containing the MtrR binding site from the mtrC promoter (top strand, 5′-[…]-3′; an unusual pseudo-direct repeat is underlined) were annealed by heating an equimolar mixture of the top and bottom strands at 95°C for 5 min, followed by slow cooling to room temperature. […] The gels were stained with ethidium bromide and visualized and analyzed with an Alpha Innotech gel documentation instrument. The intensities of free DNA were measured with ImageJII ([61], [62]).
Background: Mobility shift assays separate free from complexed probe on a gel.

In a further experiment the target is T4, MtrR-DNA complex (Neisseria gonorrhoeae, UniProt P39897).
T4 construct: nearly all 210 residues of each protomer observed, with the exception of residues 1 through 7; hexahistidine tag (thrombin-cleavable) (cleaved yes); made in house
It is filed as biochemical. The following applies: EMSA, wild-type MtrR, mtrC promoter oligoduplex.

Experiment [2] concerns the target T5, MtrR(R176E)-mtrCDE operator DNA (Neisseria gonorrhoeae, UniProt P39897, R176E).
T5 construct: hexahistidine tag with TEV protease site (N, cleaved yes); made in house; host or cells: Rosetta Gami B(DE3) pLysS cells (Novagen)
In words: Electrophoretic mobility shift assay, induction of MtrR(R176E). It is filed as biochemical. To be noted: EMSA.
Description: as §1, §2

Where two headings read alike, the source gives them in different places.

T1 sequence (P39897 whole entry): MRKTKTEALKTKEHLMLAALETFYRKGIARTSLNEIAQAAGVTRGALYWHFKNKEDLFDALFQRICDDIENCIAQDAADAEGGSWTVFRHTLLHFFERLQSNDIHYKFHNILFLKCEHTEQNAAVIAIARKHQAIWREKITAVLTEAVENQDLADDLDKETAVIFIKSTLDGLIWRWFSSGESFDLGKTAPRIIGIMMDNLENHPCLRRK
T5 sequence (P39897 whole entry R176E): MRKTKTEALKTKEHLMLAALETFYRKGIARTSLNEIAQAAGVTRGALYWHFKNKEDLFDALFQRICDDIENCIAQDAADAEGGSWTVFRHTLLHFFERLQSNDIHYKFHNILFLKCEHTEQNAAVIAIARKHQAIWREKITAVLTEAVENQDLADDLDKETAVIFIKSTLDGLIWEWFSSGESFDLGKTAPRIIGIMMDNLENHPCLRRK
T2 sequence (P39897 whole entry): as the sequence (P39897 whole entry) above
T4 sequence (P39897 whole entry, one chain of several): as the sequence (P39897 whole entry) above
T3 sequence (P39897 whole entry W136L): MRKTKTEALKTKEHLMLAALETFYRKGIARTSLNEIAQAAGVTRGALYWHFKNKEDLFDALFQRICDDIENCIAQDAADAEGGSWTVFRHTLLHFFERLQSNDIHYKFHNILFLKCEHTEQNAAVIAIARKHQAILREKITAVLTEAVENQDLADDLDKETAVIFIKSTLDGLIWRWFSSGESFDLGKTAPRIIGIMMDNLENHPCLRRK
Description for MtrR-DNA complex: To test the hypothesis that these bile salts directly bind to MtrR and potentially derepress gene expression by interfering with the DNA binding activity of MtrR, MtrR-mtrC promoter interactions were tested in the presence and absence of different concentrations of several bile salts. […] It is important to note that this is a competition assay that, due to its experimental design, requires the use of 3 μM DNA and 4 to 10 μM MtrR dimer. Consequently, this means that ∼99.9% of all DNA is MtrR bound.
Complementary oligodeoxynucleotides containing the MtrR binding site from the mtrC promoter (top strand, 5′-[sequence]-3′; an unusual pseudo-direct repeat is underlined) were annealed by heating an equimolar mixture of the top and bottom strands at 95°C for 5 min, followed by slow cooling to room temperature. Binding reactions were carried out in 20-μl volumes of binding buffer (20 mM Tris [pH 8.0], 200 mM NaCl, 10% glycerol, and 1 mM TCEP) containing 1 μg oligoduplex, 1 μg poly(dI-dC), and 4 to 10 μg MtrR. After a 20-minute incubation at room temperature, the preformed complex was incubated with or without various concentrations of selected bile salts at room temperature for an additional 10 min. […] The gels were stained with ethidium bromide and visualized and analyzed with an Alpha Innotech gel documentation instrument. The intensities of free DNA were measured with ImageJII ([61], [62]).

Turning to `C[C@H](CCC(=O)O)[C@H]1CC[C@H]2[C@@H]3[C@H](O)C[C@@H]4C[C@H](O)CC[C@]4(C)[C@H]3CC[C@]12C` [Chenodeoxycholate, chenodeoxycholate], the “Fold increase in Kd” value at MtrR-mtrCDE promoter (1 mM bile salt) is 8.3; at MtrR-mtrCDE promoter (1 mM bile salt, listed as chenodeoxycholate) it was 8- to 28; at MtrR-mtrCDE promoter (5 mM bile salt), “No binding”. Also, at MtrR-mtrCDE promoter (5 mM bile salt, no bile salt 18 ± 3 nM), the “Kd of MtrR-mtrCDE promoter binding in the presence of bile salt” value was “no DNA binding by MtrR was detected”. Besides, at WT MtrR, the “Binding, ligand competition: chenodeoxycholate titrated into MtrR-TDCA” value was “minimal binding”. Also, the “Concentration that induces (dissociates from mtrCDE operator DNA) MtrR(W136L)” value in experiment [1] is given as 5 to 10 mM. Besides, at MtrR-DNA complex, the “Concentration that disrupts the preformed MtrR-DNA complex” value is 2 to 3 mM. In addition, the “Concentration that induces (dissociates from mtrCDE operator DNA) MtrR(R176E)” value in experiment [2] is recorded as “did not induce either MtrR(R176A) or MtrR(R176E) to the same degree as the wild-type protein”.
